{"source": "patent US20070135490A1", "about": "“Phenetanolamine derivatives” (priority 2003, published 2007)"}
{"target": "T1, human beta-2 receptor (Homo sapiens, UniProt P07550)", "T1 construct": "expressed in transfected cells; host or cells: Chinese hamster ovary cells (whole cells or membranes derived from them)", "experiment": "Chinese hamster ovary cells co-expressing the human receptor with a reporter gene, cAMP measurement in whole cells or membranes (Method 2)", "format": "cell-based", "settings": "CHO cells or membranes", "description": "(§1) Potency of compounds of the invention at the human beta 2, 1 and 3 receptors was also determined using Chinese hamster ovary cells co-expressing the human receptor with a reporter gene. Studies were performed using either whole cells or membranes derived from those cells.\n(§2) The three beta-receptors are coupled via the Gs G-protein to cause a simulation of adenylate cyclase resulting in increased levels of cAMP in the cell. For direct cAMP measurements either membranes or cells have been used with either the HitHunter enzyme fragment complementation kit (DiscoveRx) or the FP^2 fluorescence polarisation kit (Perkin Elmer) to quantify the levels of cAMP present. These assays provide a measure of agonist potency and intrinsic activity of the compounds at the various receptors. […]\n(§3) In this assay the potency of compounds at the human beta-2 receptor is expressed as a pEC50 value. Compounds of examples 12-26, 28-50 and 52-64 had pEC50 values greather than 6. […] No result is available for the compound of example 51."}
{"molecule": "Formic acid compound with 4-((1R)-1-hydroxy-2-{[2-(3-{[3-(2-hydroxyphenyl)propoxy]methyl}phenyl)ethyl]amino}ethyl)-2-(hydroxymethyl)phenol (1:1) [Example 27]", "pEC50 at the human beta-2 receptor": "less than 6"}
{"target": "T1, human beta-2 receptor", "experiment": "Chinese hamster ovary cells co-expressing the human receptor with a reporter gene, cAMP measurement in whole cells or membranes (Method 2)", "format": "cell-based", "settings": "CHO cells or membranes, read-out: pEC50 at the human beta-2 receptor (converted)", "description": "as §1, §2, §3", "units": {"EC50": "nM"}}
{"molecule": "OCc1cc([C@@H](O)CNCCc2cccc(COCc3ccc(O)cc3)c2)ccc1O", "note": "[Example 26, Formic acid compound with 4-((1R)-1-hydroxy-2-{[2-(3-{[(4-hydroxybenzyl)oxy]methyl}phenyl)ethyl]amino}ethyl)-2-(hydroxymethyl)phenol (1:1)]", "EC50": "< 1000"}
{"molecule": "NS(=O)(=O)c1cccc(COCc2cccc(CCNC[C@H](O)c3ccc(O)c(CO)c3)c2)c1", "note": "[Example 64, 3-[({3-[2-({(2R)-2-Hydroxy-2-[4-hydroxy-3-(hydroxymethyl)phenyl]ethyl}amino)ethyl]benzyl}oxy)methyl]benzenesulfonamide acetate]", "EC50": "< 1000"}
{"molecule": "COc1cccc(COCCOCc2cccc(CCNC[C@H](O)c3ccc(O)c(CO)c3)c2)c1", "note": "[Example 17, Formic acid compound with 4-[(1R)-1-hydroxy-2-({2-[3-({2-[(3-methoxybenzyl)oxy]ethoxy}methyl)phenyl]ethyl}amino)ethyl]-2-(hydroxymethyl)phenol (1:1)]", "EC50": "< 1000"}
{"molecule": "O=S(=O)(c1cccc(CCOCc2cccc(CCNC[C@H](O)c3ccc(O)c(CO)c3)c2)c1)C1CCCC1", "note": "[Example 60, Formic acid compound with 4-[(1R)-2-({2-[3-({2-[3-(cyclopentylsulfonyl)phenyl]ethoxy}methyl)phenyl]ethyl}amino)-1-hydroxyethyl]-2-(hydroxymethyl)phenol (1:1)]", "EC50": "< 1000"}
{"molecule": "N#Cc1cccc(COCCOCc2cccc(CCNC[C@H](O)c3ccc(O)c(CO)c3)c2)c1", "note": "[Example 13, Formic acid compound with 3-{[2-({3-[2-({(2R)-2-hydroxy-2-[4-hydroxy-3-(hydroxymethyl)phenyl]ethyl}amino)ethyl]benzyl}oxy)ethoxy]methyl}benzonitrile (1:1)]", "EC50": "< 1000"}
{"molecule": "OCc1cc([C@@H](O)CNCCc2cccc(COCCc3cccc(F)c3)c2)ccc1O", "note": "[Example 39, Formic acid compound with 4-((1R)-2-{[2-(3-{[2-(3-fluorophenyl)ethoxy]methyl}phenyl)ethyl]amino}-1-hydroxyethyl)-2-(hydroxymethyl)phenol (1:1)]", "EC50": "< 1000"}
{"molecule": "N#Cc1cccc(COCc2cccc(CCNC[C@H](O)c3ccc(O)c(CO)c3)c2)c1", "note": "[Example 42, Formic acid compound with 3-[({3-[2-({(2R)-2-hydroxy-2-[4-hydroxy-3-(hydroxymethyl)phenyl]ethyl}amino)ethyl]benzyl}oxy)methyl]benzonitrile (1:1)]", "EC50": "< 1000"}
{"molecule": "NC(=O)c1ccc(COCc2cccc(CCNC[C@H](O)c3ccc(O)c(CO)c3)c2)cc1", "note": "[Example 54, Formic acid compound with 4-[({3-[2-({(2R)-2-hydroxy-2-[4-hydroxy-3-(hydroxymethyl)phenyl]ethyl}amino)ethyl]benzyl}oxy)methyl]benzamide (1:1)]", "EC50": "< 1000"}
{"molecule": "OCc1cc([C@@H](O)CNCCc2cccc(COCCCCc3c(Cl)cccc3Cl)c2)ccc1O", "note": "[Example 57, Formic acid compound with 4-((1R)-2-{[2-(3-{[4-(2,6-dichlorophenyl)butoxy]methyl}phenyl)ethyl]amino}-1-hydroxyethyl)-2-(hydroxymethyl)phenol (1:1)]", "EC50": "< 1000"}
{"molecule": "OCc1cc([C@@H](O)CNCCc2cccc(COCCOCc3c(Cl)cccc3Cl)c2)ccc1O", "note": "[Example 14, Formic acid compound with 4-[(1R)-2-({2-[3-({2-[(2,6-dichlorobenzyl)oxy]ethoxy}methyl)phenyl]ethyl}amino)-1-hydroxyethyl]-2-(hydroxymethyl)phenol (1:1)]", "EC50": "< 1000"}
{"molecule": "O=S(=O)(c1cccc(COCCOCc2cccc(CCNC[C@H](O)c3ccc(O)c(CO)c3)c2)c1)C1CCCC1", "note": "[Example 33, Formic acid compound with 4-{(1R)-2-[(2-{3-[(2-{[3-(cyclopentylsulfonyl)benzyl]oxy}ethoxy)methyl]phenyl}ethyl)amino]-1-hydroxyethyl}-2-(hydroxymethyl)phenol (1:1)]", "EC50": "< 1000"}
{"molecule": "N#Cc1cccc(CCCOCc2cccc(CCNC[C@H](O)c3ccc(O)c(CO)c3)c2)c1", "note": "[Example 22, Formic acid compound with 3-[3-({3-[2-({(2R)-2-hydroxy-2-[4-hydroxy-3-(hydroxymethyl)phenyl]ethyl}amino)ethyl]benzyl}oxy)propyl]benzonitrile (1:1)]", "EC50": "< 1000"}
{"molecule": "O=S(=O)(c1cccc(COCc2cccc(CCNC[C@H](O)c3ccc(O)c(CO)c3)c2)c1)C1CCCC1", "note": "[Example 35, Formic acid compound with 4-[(1R)-2-({2-[3-({[3-(cyclopentylsulfonyl)benzyl]oxy}methyl)phenyl]ethyl}amino)-1-hydroxyethyl]-2-(hydroxymethyl)phenol (1:1)]", "EC50": "< 1000"}
{"molecule": "O=S(=O)(c1ccc(CCCCOCc2cccc(CCNC[C@H](O)c3ccc(O)c(CO)c3)c2)cc1)C1CCCC1", "note": "[Example 29, Formic acid compound with 4-[(1R)-2-({2-[3-({4-[4-(cyclopentylsulfonyl)phenyl]butoxy}methyl)phenyl]ethyl}amino)-1-hydroxyethyl]-2-(hydroxymethyl)phenol (1:1)]", "EC50": "< 1000"}
{"molecule": "N#Cc1ccc(CCCOCc2cccc(CCNC[C@H](O)c3ccc(O)c(CO)c3)c2)cc1", "note": "[Example 20, Formic acid compound with 4-[3-({3-[2-({(2R)-2-hydroxy-2-[4-hydroxy-3-(hydroxymethyl)phenyl]ethyl}amino)ethyl]benzyl}oxy)propyl]benzonitrile (1:1)]", "EC50": "< 1000"}
{"molecule": "Cc1cc(C)cc(COCc2cccc(CCNC[C@H](O)c3ccc(O)c(CO)c3)c2)c1", "note": "[Example 46, Formic acid compound with 4-((1R)-2-{[2-(3-{[(3,5-dimethylbenzyl)oxy]methyl}phenyl)ethyl]amino}-1-hydroxyethyl)-2-(hydroxymethyl)phenol (1:1)]", "EC50": "< 1000"}
{"molecule": "Cc1cc(C)cc(COCCOCc2cccc(CCNC[C@H](O)c3ccc(O)c(CO)c3)c2)c1", "note": "[Example 16, Formic acid compound with 4-[(1R)-2-({2-[3-({2-[(3,5-dimethylbenzyl)oxy]ethoxy}methyl)phenyl]ethyl}amino)-1-hydroxyethyl]-2-(hydroxymethyl)phenol (1:1)]", "EC50": "< 1000"}
{"molecule": "NC(=O)c1cccc(COCc2cccc(CCNC[C@H](O)c3ccc(O)c(CO)c3)c2)c1", "note": "[Example 53, Formic acid compound with 3-[({3-[2-({(2R)-2-hydroxy-2-[4-hydroxy-3-(hydroxymethyl)phenyl]ethyl}amino)ethyl]benzyl}oxy)methyl]benzamide (1:1)]", "EC50": "< 1000"}
{"molecule": "[O-][S+](c1cccc(COCCOCc2cccc(CCNC[C@H](O)c3ccc(O)c(CO)c3)c2)c1)C1CCCC1", "note": "(stereo partly drawn) [Example 34, Formic acid compound with 4-{(1R)-2-[(2-{3-[(2-{[3-(cyclopentylsulfinyl)benzyl]oxy}ethoxy)methyl]phenyl}ethyl)amino]-1-hydroxyethyl}-2-(hydroxymethyl)phenol (1:1)]", "EC50": "< 1000"}
{"molecule": "OCc1cc([C@@H](O)CNCCc2cccc(COCCCc3cccc(O)c3)c2)ccc1O", "note": "[Example 28, Formic acid compound with 4-((1R)-1-hydroxy-2-{[2-(3-{[3-(3-hydroxyphenyl)propoxy]methyl}phenyl)ethyl]amino}ethyl)-2-(hydroxymethyl)phenol (1:1)]", "EC50": "< 1000"}
{"molecule": "N#Cc1ccc(CCCCOCc2cccc(CCNC[C@H](O)c3ccc(O)c(CO)c3)c2)cc1", "note": "[Example 21, Formic acid compound with 4-[4-({3-[2-({(2R)-2-hydroxy-2-[4-hydroxy-3-(hydroxymethyl)phenyl]ethyl}amino)ethyl]benzyl}oxy)butyl]benzonitrile (1:1)]", "EC50": "< 1000"}
{"molecule": "NS(=O)(=O)c1cccc(CCOCc2cccc(CCNC[C@H](O)c3ccc(O)c(CO)c3)c2)c1", "note": "[Example 55, Formic acid compound with 3-[2-({3-[2-({(2R)-2-hydroxy-2-[4-hydroxy-3-(hydroxymethyl)phenyl]ethyl}amino)ethyl]benzyl}oxy)ethyl]benzenesulfonamide (1:1)]", "EC50": "< 1000"}
{"molecule": "NC(=O)c1cccc(COCCOCc2cccc(CCNC[C@H](O)c3ccc(O)c(CO)c3)c2)c1", "note": "[Example 52, Formic acid compound with 3-{[2-({3-[2-({(2R)-2-hydroxy-2-[4-hydroxy-3-(hydroxymethyl)phenyl]ethyl}amino)ethyl]benzyl}oxy)ethoxy]methyl}benzamide (1:1)]", "EC50": "< 1000"}
{"molecule": "OCc1cc([C@@H](O)CNCCc2cccc(COCCOCc3cccc(F)c3)c2)ccc1O", "note": "[Example 15, Formic acid compound with 4-[(1R)-2-({2-[3-({2-[(3-fluorobenzyl)oxy]ethoxy}methyl)phenyl]ethyl}amino)-1-hydroxyethyl]-2-(hydroxymethyl)phenol (1:1)]", "EC50": "< 1000"}
